{"source": "patent US10301297B2", "about": "“Substituted nicotinimide inhibitors of BTK and their preparation and use in the treatment of cancer, inflammation and autoimmune disease” (GUANGZHOU INNOCARE PHARMA TECH CO., LTD., priority 2013, dated 2019)", "key": {"[1]": {"target": "BLK (Homo sapiens (Human), UniProt P51451)", "sequence (P51451 whole entry)": "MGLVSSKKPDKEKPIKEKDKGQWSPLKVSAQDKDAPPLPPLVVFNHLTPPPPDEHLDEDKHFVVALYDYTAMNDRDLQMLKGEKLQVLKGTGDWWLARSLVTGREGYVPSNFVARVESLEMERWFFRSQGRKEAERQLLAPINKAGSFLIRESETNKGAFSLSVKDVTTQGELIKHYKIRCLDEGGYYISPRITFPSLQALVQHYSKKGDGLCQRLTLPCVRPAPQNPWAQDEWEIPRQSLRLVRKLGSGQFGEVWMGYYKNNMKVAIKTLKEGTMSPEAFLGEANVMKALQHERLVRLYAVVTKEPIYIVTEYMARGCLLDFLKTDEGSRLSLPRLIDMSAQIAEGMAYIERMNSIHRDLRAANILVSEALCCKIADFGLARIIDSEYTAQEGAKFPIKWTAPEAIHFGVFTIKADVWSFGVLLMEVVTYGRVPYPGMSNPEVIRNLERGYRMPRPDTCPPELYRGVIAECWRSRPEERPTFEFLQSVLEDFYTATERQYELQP", "assay": "kinase binding screen (affinity beads, qPCR readout) at 1000 nM", "conditions": "read-out: % Inhibition @ 1000 nM"}, "[2]": {"target": "FGR (Homo sapiens (Human), UniProt P09769)", "sequence (P09769 whole entry)": "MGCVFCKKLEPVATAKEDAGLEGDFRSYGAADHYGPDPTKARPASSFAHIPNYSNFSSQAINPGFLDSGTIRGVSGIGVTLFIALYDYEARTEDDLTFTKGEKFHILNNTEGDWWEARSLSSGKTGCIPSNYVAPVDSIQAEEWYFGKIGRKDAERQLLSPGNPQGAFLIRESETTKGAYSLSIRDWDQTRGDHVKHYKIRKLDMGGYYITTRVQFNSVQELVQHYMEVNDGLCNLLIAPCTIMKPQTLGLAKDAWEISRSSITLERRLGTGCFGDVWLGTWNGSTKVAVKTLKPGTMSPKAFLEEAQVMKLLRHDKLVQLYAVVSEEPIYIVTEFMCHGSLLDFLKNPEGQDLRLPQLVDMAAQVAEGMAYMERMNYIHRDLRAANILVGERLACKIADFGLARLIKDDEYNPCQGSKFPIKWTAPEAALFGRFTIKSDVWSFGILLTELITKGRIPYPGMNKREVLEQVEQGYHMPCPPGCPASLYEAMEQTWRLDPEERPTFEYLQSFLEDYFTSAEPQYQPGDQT", "assay": "kinase binding screen (affinity beads, qPCR readout) at 1000 nM", "conditions": "read-out: % Inhibition @ 1000 nM"}, "[3]": {"target": "FYN (Homo sapiens (Human), UniProt P06241)", "sequence (P06241 whole entry)": "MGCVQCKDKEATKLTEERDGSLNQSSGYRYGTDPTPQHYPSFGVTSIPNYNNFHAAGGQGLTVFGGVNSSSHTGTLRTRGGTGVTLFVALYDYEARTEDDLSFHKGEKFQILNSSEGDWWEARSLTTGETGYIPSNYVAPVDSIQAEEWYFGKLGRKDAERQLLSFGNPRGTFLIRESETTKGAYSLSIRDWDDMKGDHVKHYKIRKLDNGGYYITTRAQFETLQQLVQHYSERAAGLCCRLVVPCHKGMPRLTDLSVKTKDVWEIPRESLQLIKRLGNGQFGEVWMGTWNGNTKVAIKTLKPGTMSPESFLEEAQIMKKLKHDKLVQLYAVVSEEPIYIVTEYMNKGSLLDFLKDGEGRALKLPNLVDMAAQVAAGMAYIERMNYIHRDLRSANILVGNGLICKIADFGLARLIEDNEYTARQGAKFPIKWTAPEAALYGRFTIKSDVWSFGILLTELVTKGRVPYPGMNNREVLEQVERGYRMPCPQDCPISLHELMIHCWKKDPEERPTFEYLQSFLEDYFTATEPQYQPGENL", "assay": "kinase binding screen (affinity beads, qPCR readout) at 1000 nM", "conditions": "read-out: % Inhibition @ 1000 nM"}, "[4]": {"target": "HCK (Homo sapiens (Human), UniProt P08631)", "sequence (P08631 whole entry)": "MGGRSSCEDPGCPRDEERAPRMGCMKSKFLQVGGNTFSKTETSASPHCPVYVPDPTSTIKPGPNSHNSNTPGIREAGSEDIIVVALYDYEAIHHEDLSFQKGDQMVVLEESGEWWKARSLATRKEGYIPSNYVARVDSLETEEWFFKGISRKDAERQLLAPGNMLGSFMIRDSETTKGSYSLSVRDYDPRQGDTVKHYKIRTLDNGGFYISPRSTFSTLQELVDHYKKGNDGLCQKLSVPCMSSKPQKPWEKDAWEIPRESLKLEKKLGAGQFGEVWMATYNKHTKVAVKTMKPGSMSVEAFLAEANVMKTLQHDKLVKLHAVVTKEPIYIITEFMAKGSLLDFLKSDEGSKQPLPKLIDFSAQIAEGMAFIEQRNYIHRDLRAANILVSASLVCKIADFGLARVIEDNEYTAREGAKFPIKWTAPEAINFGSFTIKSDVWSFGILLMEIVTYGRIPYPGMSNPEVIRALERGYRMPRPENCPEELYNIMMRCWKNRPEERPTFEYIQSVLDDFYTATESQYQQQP", "assay": "kinase binding screen (affinity beads, qPCR readout) at 1000 nM", "conditions": "read-out: % Inhibition @ 1000 nM"}, "[5]": {"target": "LCK (Homo sapiens (Human), UniProt P06239)", "sequence (P06239 whole entry)": "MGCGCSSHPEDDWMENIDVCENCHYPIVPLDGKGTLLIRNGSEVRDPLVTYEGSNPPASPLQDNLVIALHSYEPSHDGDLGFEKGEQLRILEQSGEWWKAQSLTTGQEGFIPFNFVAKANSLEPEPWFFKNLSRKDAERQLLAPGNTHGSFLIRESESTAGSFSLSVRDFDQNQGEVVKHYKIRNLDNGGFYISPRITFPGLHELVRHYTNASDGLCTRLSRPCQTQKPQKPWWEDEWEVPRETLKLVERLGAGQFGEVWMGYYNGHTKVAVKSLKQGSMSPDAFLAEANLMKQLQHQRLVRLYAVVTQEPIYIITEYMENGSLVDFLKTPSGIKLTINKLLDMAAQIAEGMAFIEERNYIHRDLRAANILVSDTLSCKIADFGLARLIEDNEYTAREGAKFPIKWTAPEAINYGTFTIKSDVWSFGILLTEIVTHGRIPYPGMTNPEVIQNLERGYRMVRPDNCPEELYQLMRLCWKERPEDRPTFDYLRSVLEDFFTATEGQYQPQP", "assay": "kinase binding screen (affinity beads, qPCR readout) at 1000 nM", "conditions": "read-out: % Inhibition @ 1000 nM"}, "[6]": {"target": "LYN (Homo sapiens (Human), UniProt P07948)", "sequence (P07948 whole entry)": "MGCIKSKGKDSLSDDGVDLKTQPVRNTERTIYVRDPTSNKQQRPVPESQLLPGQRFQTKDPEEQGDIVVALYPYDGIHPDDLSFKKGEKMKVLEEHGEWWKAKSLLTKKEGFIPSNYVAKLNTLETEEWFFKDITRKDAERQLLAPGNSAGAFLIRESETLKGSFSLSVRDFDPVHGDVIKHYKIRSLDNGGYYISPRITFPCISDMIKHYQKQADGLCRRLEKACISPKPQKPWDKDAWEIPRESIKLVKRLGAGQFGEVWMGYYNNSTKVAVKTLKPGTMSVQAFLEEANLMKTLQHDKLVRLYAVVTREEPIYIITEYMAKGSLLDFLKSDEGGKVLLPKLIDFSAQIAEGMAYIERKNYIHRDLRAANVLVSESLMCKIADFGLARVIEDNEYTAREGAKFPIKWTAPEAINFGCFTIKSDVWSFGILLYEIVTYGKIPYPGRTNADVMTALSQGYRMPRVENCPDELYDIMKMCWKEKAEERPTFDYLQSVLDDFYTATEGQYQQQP", "assay": "kinase binding screen (affinity beads, qPCR readout) at 1000 nM", "conditions": "read-out: % Inhibition @ 1000 nM"}, "[7]": {"target": "YES (Homo sapiens (Human), UniProt P07947)", "sequence (P07947 whole entry)": "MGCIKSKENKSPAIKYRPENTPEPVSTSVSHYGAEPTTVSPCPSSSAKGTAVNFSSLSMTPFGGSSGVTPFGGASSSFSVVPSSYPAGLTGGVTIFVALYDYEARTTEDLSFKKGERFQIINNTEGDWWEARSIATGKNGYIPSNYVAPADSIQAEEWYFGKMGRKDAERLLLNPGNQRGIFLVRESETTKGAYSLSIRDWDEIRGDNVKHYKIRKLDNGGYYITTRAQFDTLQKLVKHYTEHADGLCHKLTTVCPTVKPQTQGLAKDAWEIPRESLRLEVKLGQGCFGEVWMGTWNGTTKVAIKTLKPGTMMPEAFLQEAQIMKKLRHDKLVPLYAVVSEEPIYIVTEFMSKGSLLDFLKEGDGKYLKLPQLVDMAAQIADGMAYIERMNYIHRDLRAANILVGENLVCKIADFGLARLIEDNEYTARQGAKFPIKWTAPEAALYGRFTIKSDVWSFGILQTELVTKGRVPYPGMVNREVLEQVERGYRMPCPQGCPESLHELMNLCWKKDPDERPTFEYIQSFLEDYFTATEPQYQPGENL", "assay": "kinase binding screen (affinity beads, qPCR readout) at 1000 nM", "conditions": "read-out: % Inhibition @ 1000 nM"}, "[8]": {"target": "T1, BTK (Homo sapiens (Human), UniProt Q06187)", "T1 sequence (Q06187 whole entry)": "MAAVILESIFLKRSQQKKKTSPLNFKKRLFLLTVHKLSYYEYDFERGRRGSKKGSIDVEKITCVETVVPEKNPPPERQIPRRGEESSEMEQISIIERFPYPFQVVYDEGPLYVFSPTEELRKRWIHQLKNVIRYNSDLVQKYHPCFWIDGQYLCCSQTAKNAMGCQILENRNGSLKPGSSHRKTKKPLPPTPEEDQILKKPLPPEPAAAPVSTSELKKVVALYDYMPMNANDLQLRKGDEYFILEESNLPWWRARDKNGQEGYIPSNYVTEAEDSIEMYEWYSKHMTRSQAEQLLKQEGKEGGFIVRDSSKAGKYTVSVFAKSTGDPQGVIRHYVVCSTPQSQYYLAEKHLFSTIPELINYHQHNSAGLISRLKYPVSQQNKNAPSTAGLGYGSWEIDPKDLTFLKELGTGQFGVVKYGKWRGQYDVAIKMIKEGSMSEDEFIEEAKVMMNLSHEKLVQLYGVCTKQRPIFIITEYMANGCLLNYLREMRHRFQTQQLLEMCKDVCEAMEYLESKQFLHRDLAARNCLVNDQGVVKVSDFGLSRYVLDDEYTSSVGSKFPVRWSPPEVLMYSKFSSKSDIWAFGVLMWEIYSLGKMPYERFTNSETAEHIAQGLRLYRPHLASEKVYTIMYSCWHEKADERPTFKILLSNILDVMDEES", "assay": "ADP-Glo Kinase biochemical assay, IC50 determination of BTK inhibitors", "conditions": "head-to-head assays", "procedure": "Biological Properties: IC50 Determination of BTK Inhibitors in ADP-Glo Kinase Biochemical Assay\n• Enzyme concentration: 8 ng/5 ul. • ATP concentration: 50 uM • Substrate (peptide) concentration: 0.2 mg/ml. • Reaction buffer composition: 40 mM Tris-HCl pH7.5, 10 mM MgCl2, 2 mM MnCl2, 0.1 mg/mL BSA, 0.05 mM DTT. • Test compound concentration: DMSO≤0.5%. Methods: Compound Dosage Gradient Solution Preparation: […]\n1× and 2× assay buffer were made at first. BTK kinase was diluted with 1× assay buffer but substrate was diluted with 2× assay buffer. 1 ul of diluted compound was transferred into 384-well assay plate, and then 2.0 ul of enzyme solution was added, and spun at 2000 rpm for 1 min. This mixture was incubated at 24° C. for 30 mins. 2 ul of peptide substrate/ATP mixture was added into the assay plate to start the reaction. The mixture was mixed thoroughly and then the 384-well plate was spun and incubated at 24° C. for 60 mins. 5.0 ul of ADP-Glo Reagent was added to stop the kinase activity and deplete the ATP unconsumed, and the plate was mixed thoroughly and incubated at 24° C. for 40 min. Then, 10.0 ul of Kinase Detection reagent was added, and the plate was centrifuged and then kept at 24° C. for 30 min. The luminescence signal was read on Envision. […]\nAll data was analyzed with IDBS XLfit5 software (ID Business Solutions Ltd., UK)."}, "[9]": {"target": "T1, BTK", "assay": "kinase binding screen (affinity beads, qPCR readout) at 1000 nM"}, "[10]": {"target": "SRC (Homo sapiens (Human), UniProt P12931)", "sequence (P12931 whole entry, looked up)": "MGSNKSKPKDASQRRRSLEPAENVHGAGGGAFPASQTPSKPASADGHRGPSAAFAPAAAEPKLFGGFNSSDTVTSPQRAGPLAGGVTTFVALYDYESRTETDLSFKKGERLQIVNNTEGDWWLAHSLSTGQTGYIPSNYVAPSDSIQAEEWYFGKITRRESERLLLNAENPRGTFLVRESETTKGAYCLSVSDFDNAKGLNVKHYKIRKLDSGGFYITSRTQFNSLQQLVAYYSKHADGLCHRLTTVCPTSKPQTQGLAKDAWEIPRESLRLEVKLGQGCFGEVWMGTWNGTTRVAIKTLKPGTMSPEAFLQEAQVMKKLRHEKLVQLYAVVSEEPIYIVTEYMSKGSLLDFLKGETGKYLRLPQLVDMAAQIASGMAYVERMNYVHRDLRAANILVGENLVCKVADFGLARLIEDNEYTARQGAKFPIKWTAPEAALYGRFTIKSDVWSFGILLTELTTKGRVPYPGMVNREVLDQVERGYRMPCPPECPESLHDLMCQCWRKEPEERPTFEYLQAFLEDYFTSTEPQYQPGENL", "assay": "kinase binding screen (affinity beads, qPCR readout) at 1000 nM"}, "[11]": {"target": "EGFR (Homo sapiens (Human), UniProt P00533)", "assay": "kinase binding screen (affinity beads, qPCR readout) at 1000 nM", "conditions": "read-out: % Inhibition @ 1000 nM"}}}
{"smiles": "C=CC(=O)N1CCC(c2ccc(C(N)=O)c(-c3ccc(Oc4ccccc4)cc3)n2)CC1", "note": "[Example 3, 6-(1-acryloylpiperidin-4-yl)-2-(4-phenoxyphenyl)nicotinamide]", "values": [{"measurement": "inhibition at 1 µM", "setting": "[1]", "value": 51, "unit": "%"}, {"measurement": "inhibition at 1 µM", "setting": "[2]", "value": 0, "unit": "%"}, {"measurement": "inhibition at 1 µM", "setting": "[3]", "value": 0, "unit": "%"}, {"measurement": "inhibition at 1 µM", "setting": "[4]", "value": 0, "unit": "%"}, {"measurement": "inhibition at 1 µM", "setting": "[5]", "value": 11, "unit": "%"}, {"measurement": "inhibition at 1 µM", "setting": "[6]", "value": 3, "unit": "%"}, {"measurement": "inhibition at 1 µM", "setting": "[7]", "value": 8, "unit": "%"}]}
{"smiles": "C=CC(=O)N1CCN(c2ccc(C(N)=O)c(-c3ccc(Oc4ccccc4)cc3)n2)CC1", "note": "[Example 5, 6-(4-acryloylpiperazin-1-yl)-2-(4-phenoxyphenyl)nicotinamide]", "values": [{"measurement": "IC50", "setting": "[8]; unit not printed in Table 2, read-out: BTK in vitro potency", "value": 4.7, "unit": "nM"}, {"measurement": "improvement in potency over Analogs 1 and 2", "setting": "[8]; in vitro BTK potency", "value": "~100", "unit": "×"}, {"measurement": "inhibition at 1 µM", "setting": "[9]", "value": 99.7, "unit": "%"}, {"measurement": "Fold Difference", "setting": "[10]; BTK vs SRC", "value": ">100", "unit": "x"}, {"measurement": "inhibition at 1 µM", "setting": "[10]; SRC, 1000 nM", "value": 33, "unit": "%"}, {"measurement": "inhibition at 1 µM", "setting": "[1]", "value": 46, "unit": "%"}, {"measurement": "inhibition at 1 µM", "setting": "[11]", "value": 23, "unit": "%"}, {"measurement": "inhibition at 1 µM", "setting": "[2]", "value": 0, "unit": "%"}, {"measurement": "inhibition at 1 µM", "setting": "[3]", "value": 5, "unit": "%"}, {"measurement": "inhibition at 1 µM", "setting": "[4]", "value": 21, "unit": "%"}, {"measurement": "inhibition at 1 µM", "setting": "[5]", "value": 0, "unit": "%"}, {"measurement": "inhibition at 1 µM", "setting": "[6]", "value": 7, "unit": "%"}, {"measurement": "inhibition at 1 µM", "setting": "[7]", "value": 6, "unit": "%"}]}
